Data taken from article PMC6459286, “Intestinal TGR5 agonism improves hepatic steatosis and insulin sensitivity in Western diet-fed mice” (American Journal of Physiology - Gastrointestinal and Liver …, 2019).
Marks after values point to notes of the source that are not given here.

What was measured:
[1] = test system: P-gp; experiment: MDCK bidirectional permeability assay; conditions: dog; for recovery: + verapamil 100 μM
[2] = Caco-2 bidirectional permeability assay; conditions: human, Caco-2; for recovery: Caco-2, Recovery
[3] = test system: MDCK cell monolayers; experiment: MDCK bidirectional permeability assay
[4] = test system: Caco-2 cell monolayers; experiment: Caco-2 bidirectional permeability assay
[5] = test system: intestinal L-cell hormones (aGLP-1, tGLP-1, tGLP-2, PYY); experiment: Secretion of intestinal L-cell hormones in mice fed a standard diet; format: in vivo, C57BL/6 mice; conditions: repeat dosing 4 days, 8 h
Method: Adult male C57BL/6 mice (Taconic) fed standard chow (Harlan Teklad 2018) were dosed orally with vehicle (2% DMSO, 10% HPβCD, 10 mM PBS-HCl) or RDX8940 in separate experiments, as described below. After dosing, mice were anesthetized, and blood was collected via cardiac puncture into K3EDTA-containing tubes (Greiner Bio-one); then, the mice were euthanized. If active GLP-1 (aGLP-1) concentrations were measured, sitagliptin and aprotinin were added to the tubes before blood collection. Blood was processed to plasma for the measurement of incretins; aGLP-1, tGLP-1, and PYY concentrations were assessed using MSD immunoassays (Meso Scale Discovery), whereas total GLP-2 (tGLP-2) concentrations were quantified using a mouse GLP-2 ELISA (ALPCO, Salem, NH).
In the first experiment, mice were administered vehicle or a single dose of RDX8940 (10, 30, or 100 mg/kg), fasted, and plasma tGLP-1 concentrations were measured 8 h after dose. In a second experiment, mice were administered repeated doses of vehicle or RDX8940 30 mg/kg twice daily over 4 days. After the last dose, the mice were fasted and plasma tGLP-1 concentrations were measured 8 h later. […] After the single or last dose, the mice were fasted, and plasma concentrations of aGLP-1, tGLP-1, tGLP-2, and PYY were measured 8, 10, and 12 h later. […]

[6] = test system: C57BL/6 mice fed Western diet; experiment: Western diet-fed mice (NAFLD and mild insulin resistance model); format: in vivo; conditions: for 4-h fasted plasma glucose vs vehicle: days 15 and 29, agent alone
Method: Six-week-old male C57BL/6 mice (Taconic) were fed Western diet chow (Harlan Teklad TD.88137, 21.2% fat, 0.2% cholesterol, 42.0% kcal from fat) for 10 wk to model NAFLD and mild insulin resistance. […] An additional vehicle (administered orally twice daily) control group (lean) was fed standard chow (Harlan Teklad 2018) throughout the study (n = 10). […], mice were fasted for 4 h after the first dose, and blood was then collected via the tail vein for measurement of plasma glucose and insulin concentrations using a glucometer (Abbott Animal Health, Abbott Park, IL) and an MSD immunoassay (Meso Scale Discovery), respectively. On day 29, mice were fasted longer (a total of 7–8 h), were anesthetized, and had blood collected via cardiac puncture for the measurement of GLP-1 levels. Mice were then euthanized under anesthesia for the collection of liver tissue. Hepatic triglyceride and cholesterol content were determined at the University of California, Davis, CA, using the Folch method ([17]).

[7] = test system: gallbladder emptying; experiment: Gallbladder emptying in mice; conditions: CD-1 mice, single oral dose; RDX8940 30 and 100 mg/kg, INT-777 30 mg/kg
[8] = test system: C57BL/6 mice fed HFCD; experiment: GLP-1 and GLP-2 agonists in HFCD-fed mice; format: in vivo; conditions: for Plasma glucose: 4-h fasted; for Plasma glucose / Plasma total cholesterol / Plasma triglycerides: day 28, means ± SE; for Plasma total bilirubin levels: data not shown; for Body weight: day 33, liraglutide 200 µg/kg or teduglutide 400 µg/kg sc twice daily, means ± SE; for Plasma insulin: day 34, means ± SE; for HFCD-increased hepatic expression of genes involved in inflammation and fibrotic processes: liver RNA sequencing
Method: At 19 wk old, mice began treatment. […] Mice were weighed each week. Before treatment and on days 14 and 28 of treatment, the mice were fasted for 4 h, and blood was then collected via the tail vein and processed to plasma for measurement of alanine aminotransferase (ALT), aspartate aminotransferase (AST), alkaline phosphatase (AP), glucose, triglycerides, and total cholesterol using an ACE Axcel clinical analyzer (Alfa Wassermann, West Caldwell, NJ). After 34 days of treatment, the mice were fasted for 6–8 h and were euthanized under anesthesia. Blood was collected and processed to plasma for measurement of insulin [using an MSD immunoassay (Meso Scale Discovery)], and ALT, AST, AP, and total bilirubin levels [using an ACE Axcel clinical analyzer (Alfa Wassermann)]. The entire liver was collected and weighed, and samples of liver were weighed for measurement of triglycerides and total cholesterol levels at University of California, Davis, CA [using the Folch method ([17])]; histological assessments of steatosis, inflammation, and fibrosis were performed using hematoxylin-and-eosin stains, and Sirius red stains (Wax-it Histology Services, Vancouver, BC, Canada and Pacific Tox Path, Ellensburg, WA). Scoring of hepatic pathology was conducted according to descriptions provided by Thoolen et al. ([32]). For gene expression studies, total RNA from mouse liver tissues was isolated using a RNeasy 96 universal tissue kit (Qiagen, Hilden, Germany). A gene expression library was prepared with 100 ng of each RNA sample using a TruSeq Stranded mRNA Library NeoPrep kit (Illumina, Hayward, CA). Library samples were subsequently multiplexed and sequenced using an Illumina NextSeq 500 sequencer (San Diego, CA). Sequences of two 75-base pair ends were obtained for all samples and mapped to the mouse transcriptome, using STAR (Spliced Transcripts Alignment to a Reference) alignment with default parameters (Basespace Cloud, Illumina) and normalized using trimmed mean of M-values method in EdgeR software (Bioconductor; https://www.bioconductor.org/). Differentiation gene expression analysis was evaluated using EdgeR. R platform (https://www.r-project.org/) was used for principal component analysis and heat map analysis. Gene ontology and network correlation analysis were performed using Gorilla (http://cbl-gorilla.cs.technion.ac.il/) and WGNCA (https://horvath.genetics.ucla.edu/html/CoexpressionNetwork/Rpackages/WGCNA/).

`COc1cc2c(c(OC)c1OC)-c1ccc(OC)c(=O)cc1[C@@H](NC(C)=O)CC2` [Colchicine] gave a Papp A→B at 10 µM [1] of 0.85 ×10⁻⁶ cm/s, a Papp B→A at 10 µM [1] of 2.31 ×10⁻⁶ cm/s and an efflux ratio at 10 µM [1] of 2.72. It also gave a recovery ([1]; A→B) of 120%, a recovery ([1]; B→A) of 113% and a Papp A→B at 10 µM [2] of 0.23 ×10⁻⁶ cm/s. For the same compound, the Papp B→A at 10 µM [2] was 6.18 ×10⁻⁶ cm/s, the efflux ratio at 10 µM [2] was 27.4 and the recovery ([2]; A→B) was 69%. For the same compound, the recovery ([2]; B→A) was 80%.

Compound `CC(CCc1ccccc1)NCC(O)c1ccc(O)c(C(N)=O)c1` (stereo not shown) [Labetalol] has a Papp A→B at 10 µM [2] of 19.4 ×10⁻⁶ cm/s, a Papp B→A at 10 µM [2] of 31.6 ×10⁻⁶ cm/s and a recovery ([2]; A→B) of 64%. It also gave a recovery ([2]; B→A) of 80%.

With `CC(C)NCC(O)COc1cccc2ccccc12` (stereo not shown) [Propranolol] the “Papp A→B” value ([3]; 10 μM, without verapamil) was 14.19 cm/s × 10^−6, the “Papp B→A” value ([3]; 10 μM, without verapamil) was 7.03 cm/s × 10^−6 and the “Recovery, B→A” value ([3]; + verapamil 100 μM) was 98%. For the same compound, the “Recovery, A→B” value ([4]; Caco-2) was 56%, the “Recovery, B→A” value ([4]; Caco-2) was 78% and the “Papp A→B” value ([4]; Caco-2, 10 μM) was 67.06 cm/s × 10^−6. For the same compound, the “Papp B→A” value ([4]; Caco-2, 10 μM) was 19.62 cm/s × 10^−6.

In the case of `CNC(=C[N+](=O)[O-])NCCSCc1ccc(CN(C)C)o1` [Ranitidine], the Papp A→B at 10 µM [2] is reported as 0.91 ×10⁻⁶ cm/s, the Papp B→A at 10 µM [2] is reported as 3.02 ×10⁻⁶ cm/s and the efflux ratio at 10 µM [2] is reported as 3.34. The recovery ([2]; A→B) was 78% and the recovery ([2]; B→A) was 87%.

For `CC#CCn1c(N2CCC[C@@H](N)C2)nc2c1c(=O)n(Cc1nc(C)c3ccccc3n1)c(=O)n2C` [linagliptin], the “aGLP-1 levels in the portal vein vs vehicle” value ([5]; monotherapy (RDX8940 30 mg/kg b.i.d.; linagliptin 10 mg/kg q.d.)) was “did not significantly affect”, the “Systemic concentrations of aGLP-1 vs vehicle” value ([5]; monotherapy) was “did not significantly increase” and the “4-h fasted plasma insulin vs vehicle” value ([6]; day 29, agent alone) was “lowered”. The “4-h fasted plasma glucose vs vehicle” value [6] was “lowered”.

With INT-777 the “Gallbladder emptying (gallbladder weight, egg yolk vs saline)” value [7] was “inhibition of gallbladder emptying”.

With liraglutide the “4-h fasted plasma insulin vs vehicle” value ([6]; day 29, agent alone) was “lowered”, the Hepatic triglyceride levels ([6]; day 29, agent alone, RDX8940 P < 0.001) was “reduced” and the Hepatic cholesterol levels ([6]; day 29, agent alone, RDX8940 P < 0.01) was “reduced”. For the same compound, the Liver weight ([6]; day 29, agent alone, RDX8940 P < 0.05) was “reduced”, the “4-h fasted plasma glucose vs vehicle” value [6] was “lowered” and the “Hepatic total cholesterol content vs vehicle” value [8] was “significantly decreased”. The “Hepatic triglyceride content vs vehicle” value [8] was “significantly decreased”, the “Hepatic weight vs vehicle” value [8] was “significantly decreased” and the “Plasma ALT levels vs vehicle” value [8] was “significantly decreased”. The “Plasma AP levels vs vehicle” value [8] was “significantly decreased”, the “Plasma AST levels vs vehicle” value [8] was “significantly decreased” and the Plasma glucose [8] was 185 ± 13 mg/dL. For the same compound, the “Plasma total bilirubin levels” value [8] was “Neither liraglutide nor teduglutide significantly affected”, the Plasma total cholesterol [8] was 230 ± 16 mg/dL and the Plasma triglycerides [8] was 59 ± 3 mg/dL. For the same compound, the Body weight [8] was 31.4 ± 0.8 g, the Plasma insulin [8] was 0.40 ± 0.11 ng/mL and the “HFCD-increased hepatic expression of genes involved in inflammation and fibrotic processes” value [8] was “abrogated this effect in many cases”. For the same compound, the Fibrosis score ([8]; median) was 2 and the Microvesicular steatosis score ([8]; median) was 0.5 ^****.

In the case of teduglutide, the “Hepatic total cholesterol content vs vehicle” value [8] is reported as “significantly decreased”, the “Hepatic triglyceride content vs vehicle” value [8] is reported as “significantly decreased” and the “Hepatic weight vs vehicle” value [8] is reported as “significantly decreased”. For the same compound, the “Plasma ALT levels vs vehicle” value [8] was “significantly decreased”, the “Plasma AP levels vs vehicle” value [8] was “significantly decreased” and the “Plasma AST levels vs vehicle” value [8] was “significantly decreased”. The Plasma glucose [8] was 205 ± 5 mg/dL, the “Plasma total bilirubin levels” value [8] was “Neither liraglutide nor teduglutide significantly affected” and the Plasma total cholesterol [8] was 279 ± 16 mg/dL. The Plasma triglycerides [8] was 84 ± 1 mg/dL, the Body weight [8] was 37.9 ± 0.9 g and the Plasma insulin [8] was 0.95 ± 0.20 ng/mL. The “HFCD-increased hepatic expression of genes involved in inflammation and fibrotic processes” value [8] was “abrogated this effect in many cases”, the Fibrosis score ([8]; median) was 2 and the Macrovesicular steatosis score ([8]; median) was 2.00 ^*. It also gave a Microvesicular steatosis score ([8]; median) of 2.0.
